Source: ChEMBL document CHEMBL4020788, “Synthesis, SAR and molecular docking studies of benzo[d]thiazole-hydrazones as potential antibacterial and antifungal agents” (2017)
In brackets after ≈: the same amount, converted by molar mass.

Tested on: Aspergillus niger
Experiment: Antifungal activity against Aspergillus niger at 25 ug/ml after 48 hrs by agar well diffusion method
Type: functional
Settings: read-out: DIZ

Question: COc1cc(/C=N/Nc2nc3cccc(C)c3s2)cc(OC)c1OC was tested. Which zone of inhibition at 25 µg/mL did it give?
Answer: 9 mm

Tested on: Staphylococcus aureus
Experiment: Antibacterial activity against Staphylococcus aureus at 100 ug/ml after 24 hrs by agar well diffusion method
Type: functional
Settings: read-out: DIZ

Question: With COc1cc(/C=N/Nc2nc3cccc(C)c3s2)cc(OC)c1OC as the compound, how does the zone of inhibition at 100 µg/mL read?
Answer: 38 mm

Tested on: Escherichia coli
Experiment: Antibacterial activity against Escherichia coli at 75 ug/ml after 24 hrs by agar well diffusion method
Type: functional
Settings: read-out: DIZ

Question: Which zone of inhibition at 75 µg/mL does the source give for COc1cc(/C=N/Nc2nc3cccc(C)c3s2)cc(OC)c1OC here?
Answer: 31 mm

Tested on: Staphylococcus aureus
Experiment: Antibacterial activity against methicillin resistant Staphylococcus aureus MRSA090 at 25 ug/ml after 24 hrs by agar well diffusion method
Type: functional
Settings: MRSA090, 24 h, read-out: DIZ

Question: How did the zone of inhibition at 25 µg/mL turn out when COc1cc(/C=N/Nc2nc3cccc(C)c3s2)cc(OC)c1OC was run?
Answer: 19 mm

Tested on: Staphylococcus aureus
Experiment: Antibacterial activity against methicillin resistant Staphylococcus aureus MRSA090 at 75 ug/ml after 24 hrs by agar well diffusion method
Type: functional
Settings: MRSA090, 24 h, read-out: DIZ

Question: COc1cc(/C=N/Nc2nc3cccc(C)c3s2)cc(OC)c1OC was tested. Which zone of inhibition at 75 µg/mL did it give?
Answer: 31 mm

Tested on: Fusarium oxysporum
Experiment: Antifungal activity against Fusarium oxysporum after 48 to 72 hrs by microdilution method
Type: functional
Settings: not given

Question: For COc1cc(/C=N/Nc2nc3cccc(C)c3s2)cc(OC)c1OC, which MIC is on record?
Answer: 23 µg/mL (≈ 64.3 µM)

Tested on: Staphylococcus aureus
Experiment: Antibacterial activity against methicillin resistant Staphylococcus aureus MRSA090 at 100 ug/ml after 24 hrs by agar well diffusion method
Type: functional
Settings: MRSA090, 24 h, read-out: DIZ

Question: How did the zone of inhibition at 100 µg/mL turn out when COc1cc(/C=N/Nc2nc3cccc(C)c3s2)cc(OC)c1OC was run?
Answer: 34 mm

Tested on: Staphylococcus aureus
Experiment: Antibacterial activity against Staphylococcus aureus at 75 ug/ml after 24 hrs by agar well diffusion method
Type: functional
Settings: read-out: DIZ

Question: With COc1cc(/C=N/Nc2nc3cccc(C)c3s2)cc(OC)c1OC as the compound, how does the zone of inhibition at 75 µg/mL read?
Answer: 33 mm

Tested on: Staphylococcus aureus
Experiment: Antibacterial activity against methicillin resistant Staphylococcus aureus MRSA090 at 50 ug/ml after 24 hrs by agar well diffusion method
Type: functional
Settings: MRSA090, 24 h, read-out: DIZ

Question: How did the zone of inhibition at 50 µg/mL turn out when COc1cc(/C=N/Nc2nc3cccc(C)c3s2)cc(OC)c1OC was run?
Answer: 25 mm

Tested on: Klebsiella pneumoniae
Experiment: Antibacterial activity against Klebsiella pneumoniae incubated for overnight by microdilution method
Type: functional
Settings: not given

Question: For COc1cc(/C=N/Nc2nc3cccc(C)c3s2)cc(OC)c1OC, which MIC is on record?
Answer: 22 µg/mL (≈ 61.5 µM)

Tested on: Bacillus subtilis
Experiment: Antibacterial activity against Bacillus subtilis at 50 ug/ml after 24 hrs by agar well diffusion method
Type: functional
Settings: read-out: DIZ

Question: COc1cc(/C=N/Nc2nc3cccc(C)c3s2)cc(OC)c1OC was tested. Which zone of inhibition at 50 µg/mL did it give?
Answer: 24 mm

Tested on: Staphylococcus aureus
Experiment: Antibacterial activity against Staphylococcus aureus at 25 ug/ml after 24 hrs by agar well diffusion method
Type: functional
Settings: read-out: DIZ

Question: COc1cc(/C=N/Nc2nc3cccc(C)c3s2)cc(OC)c1OC was tested. Which zone of inhibition at 25 µg/mL did it give?
Answer: 22 mm

Tested on: Fusarium oxysporum
Experiment: Antifungal activity against Fusarium oxysporum at 50 ug/ml after 48 hrs by agar well diffusion method
Type: functional
Settings: read-out: DIZ

Question: With COc1cc(/C=N/Nc2nc3cccc(C)c3s2)cc(OC)c1OC as the compound, how does the zone of inhibition at 50 µg/mL read?
Answer: 11 mm

Tested on: Aspergillus niger
Experiment: Antifungal activity against Aspergillus niger after 48 to 72 hrs by microdilution method
Type: functional
Settings: not given

Question: COc1cc(/C=N/Nc2nc3cccc(C)c3s2)cc(OC)c1OC was tested. Which MIC did it give?
Answer: 30 µg/mL (≈ 83.9 µM)

Tested on: Klebsiella pneumoniae
Experiment: Antibacterial activity against Klebsiella pneumoniae at 75 ug/ml after 24 hrs by agar well diffusion method
Type: functional
Settings: read-out: DIZ

Question: COc1cc(/C=N/Nc2nc3cccc(C)c3s2)cc(OC)c1OC was tested. Which zone of inhibition at 75 µg/mL did it give?
Answer: 33 mm

Tested on: Escherichia coli
Experiment: Antibacterial activity against Escherichia coli incubated for overnight by microdilution method
Type: functional
Settings: not given

Question: How did the MIC turn out when COc1cc(/C=N/Nc2nc3cccc(C)c3s2)cc(OC)c1OC was run?
Answer: 20 µg/mL (≈ 56 µM)

Tested on: Escherichia coli
Experiment: Antibacterial activity against Escherichia coli at 50 ug/ml after 24 hrs by agar well diffusion method
Type: functional
Settings: read-out: DIZ

Question: How did the zone of inhibition at 50 µg/mL turn out when COc1cc(/C=N/Nc2nc3cccc(C)c3s2)cc(OC)c1OC was run?
Answer: 25 mm

Tested on: Staphylococcus aureus
Experiment: Antibacterial activity against Staphylococcus aureus incubated for overnight by microdilution method
Type: functional
Settings: not given

Question: How did the MIC turn out when COc1cc(/C=N/Nc2nc3cccc(C)c3s2)cc(OC)c1OC was run?
Answer: 19 µg/mL (≈ 53.2 µM)

Tested on: Fusarium oxysporum
Experiment: Antifungal activity against Fusarium oxysporum at 100 ug/ml after 48 hrs by agar well diffusion method
Type: functional
Settings: read-out: DIZ

Question: COc1cc(/C=N/Nc2nc3cccc(C)c3s2)cc(OC)c1OC was tested. Which zone of inhibition at 100 µg/mL did it give?
Answer: 20 mm

Tested on: Escherichia coli
Experiment: Antibacterial activity against Escherichia coli at 100 ug/ml after 24 hrs by agar well diffusion method
Type: functional
Settings: read-out: DIZ

Question: With COc1cc(/C=N/Nc2nc3cccc(C)c3s2)cc(OC)c1OC as the compound, how does the zone of inhibition at 100 µg/mL read?
Answer: 36 mm
